Laboratory results published in US20110245105A1, “Methods and Kits for Direct Detection and Susceptibility Profiling of Beta-Lactam Resistant Bacteria” (YISSUM RESEARCH DEVELOPMENT COMPANY OF THE HEBREW …, priority 2008, published 2011).

Experiments:
[1] = system: E. coli; assay: ART strip (Antibiotics Resistance Test), iodometric detection of beta-lactam hydrolysis by un-cultured urine sample pellets; format: cell-based
Description: (§1) Filter paper (Whatman no. 3) strips impregnated with 50 mM potassium iodide and 10 mM iodine in 0.75% aqueous starch solution were divided into 6 test areas. Appropriate antibiotic substrates were prepared at a final concentration of 20 mg/mL. Each test area was impregnated with 30 μL of the appropriate solution. The strips were then dried in a lyophilizer and stored with a desiccant at 4° C.
(§2) One mL urine samples were spun 2 minutes at 3000 RPM in room temperature. Supernatants were removed and aliquots of the resulting pellets were streaked on standard slides.
(§3) The product of the enzymatic degradation of a beta-lactam antibiotic removes the iodine from the ART strip and causes local decolorization in that strip. Typically, a detection kit consists of two slides, as illustrated in FIG. 2. The bottom slide is streaked with the sample to be tested. The top slide (lid) carries the ART strip which is activated when each test area on the strip receives 25 μL of the activator solution consisting of 40 mg gelatin in 100 mL phosphate buffer pH 6.5. The test starts when the top slide carrying the freshly activated ART strip contacts the bottom slide carrying the sample. It may be carried out at ambient temperatures but will be accelerated by warming-up to 41° C. […] Result is confirmed if no decolorization took place in the absence of the bacteria (the background of that test area) or in the absence of the antibiotic (as in Test Area 2 in FIG. 1).
(§4) One mL urine sample pellets were collected as described in Example 1 and each streaked on a slide. The strip of the invention (termed ART for Antibiotics Resistance Test) was used to test for beta-lactamase and its ability to degrade Ceftazidime [Caz], Ceftriaxone [Cro], Cefuroxime [Cxm] and Ampicillin [Amp]. The strip, containing iodine and starch and divided to areas containing each of the abovementioned antibiotics, and attached to a plain slide, was activated as shown above, and placed on the streaked slide. After 5-15 minutes at 33° C.-38° C. the slide was scanned and recorded.

[2] = system: K. pneumoniae; assay: conventional lab procedures [CLP], resistance of bacterial isolates; format: cell-based; conditions: 1 sample (r12)
Description: (§5) The same specimens were examined using conventional lab procedures [CLP] that determined the identity of the bacterial isolates and their resistance to the above beta-lactams.

[3] = system: K. oxytoca; assay: as above; format: cell-based; conditions: 1 sample (r15)
Description: as §5

[4] = system: K. pneumoniae; assay: ART strip test on urine sample pellets; format: cell-based
Description: as §1, §2, §3, §4

[5] = system: Staphylococcus sp.; assay: ART strip test on urine sample pellets; format: cell-based
Description: as §1, §2, §3, §4

[6] = system: Morg. morganii; assay: ART strip test on urine sample pellets; format: cell-based
Description: as §1, §2, §3, §4

[7] = system: Prot. mirabilis; assay: ART strip test on urine sample pellets; format: cell-based
Description: as §1, §2, §3, §4

[8] = system: Citr. koseri; assay: ART strip test on urine sample pellets; format: cell-based; conditions: 2 samples (r25)
Description: as §1, §2, §3, §4

[9] = system: Acinetobacter sp.; assay: ART strip test on urine sample pellets; format: cell-based; conditions: 1 sample (r29)
Description: as §1, §2, §3, §4

[10] = system: Str. agalactiae; assay: ART strip test on urine sample pellets; format: cell-based; conditions: 3 samples (r34)
Description: as §1, §2, §3, §4

[11] = system: K. oxytoca; assay: ART strip test on urine sample pellets; format: cell-based
Description: as §1, §2, §3, §4

[12] = system: E. faecalis; assay: ART strip test on urine sample pellets; format: cell-based; conditions: 4 samples (r27)
Description: as §1, §2, §3, §4

[13] = system: carbapenemase; assay: detection of carbapenemase activity in clinical urine samples; format: biochemical; conditions: urine pellet streak; 12 min at room temperature; 5.0-30 mg/mL substrate
Description: Activated ART strip impregnated with 30 μL of an aqueous solution of 30, […], 20, 15, 10 and 5.0 mg/mL imipenem (Ipm) or ertapenem (Etp) in positions 1, 2, 3, 4 and 5 on the strip, respectively, was placed in contact with a slide streaked with a urine pellet sample (Ipm+Sam. or Etp+Sam.), or an unstreaked slide (Ipm Cont. or Etp Cont.), […] reaction to appear. Abbreviations: Cont. (control), Etp. (ertapenem), Ipm. (imipenem), sam. (sample).
The product of the enzymatic degradation of a beta-lactam antibiotic removes the iodine from the ART strip and causes local decolorization in that strip. Typically, a detection kit consists of two slides, as illustrated in FIG. 2. The bottom slide is streaked with the sample to be tested. The top slide (lid) carries the ART strip which is activated when each test area on the strip receives 25 μL of the activator solution consisting of 40 mg gelatin in 100 mL phosphate buffer pH 6.5. The test starts when the top slide carrying the freshly activated ART strip contacts the bottom slide carrying the sample. […]
Urine samples were concentrated by a two minute centrifugation step at 3000 RPM and the resulting pellet was streaked on standard slides. […] As shown by the figure, the carbapenemase activity is easily detected using this method, even in samples containing low concentrations of antibiotic substrates.

[14] = system: carbapenem-resistant Enterobacteriaceae; assay: modular kit for detection of CRE in urine sample; format: cell-based; conditions: CRE-containing urine sample; as part of augmentin
Description: The kit constructed as a twin-slide [as illustrated by FIG. 1] carries an “OCTET” strip impregnated [as in Example 1] with an array of eight beta-lactam antibiotics and 1 non-beta-lactam control [S].
To illustrate the life-saving potential of the proposed technology which eliminates delays in diagnosis of carbapenem-resistant members of the Enterobacteriaceae family (CRE), a CRE sample was analyzed using the invention's modular kit, containing ampicillin, ceftazidime, augmentin, cefotaxime, imipenem, cefuroxime, meropenem and ceftriaxone as beta-lactamase substrates and a non-beta-lactam antibiotic, served as a negative control.
Filter paper segments were glued to a slide, each segment impregnated with a single antibiotic of the abovementioned antibiotics and streaked with carbapenem-resistant Enterobacteriaceae-containing urine sample pellets, prepared as described in Examples 1 to 3. The slide was contacted with indicator strips attached to a slide.

[15] = system: K. pneumoniae; assay: modular antibiotic resistance detection kit on urine sample pellets; format: cell-based; conditions: K. pneumoniae, profile r20
Description: (§6) A modular antibiotic resistance detection kit offers more flexibility in testing different resistance profiles. In the modular detection kit exemplified here, the ART strip is replaced by filter paper segments glued to a slide, each segment impregnated with a single antibiotic.
(§7) Specifically, pathogen samples were tested using filter papers impregnated with the following beta-lactam antibiotics: ampicillin [Amp], augmentin (a combination of amoxicillin and clavulanic acid) [AMC], clavulanic acid (Reduced Resistance test) [RR], ceftazidime [Caz] and either imipenem or meropenem [CPM]. The impregnation details of the fragments were as in the previous Examples.
(§8) Filter paper (Whatman no. 3] strips impregnated with Assay Reagent solution were used as “indicator strips”. An indicator strip was attached to the plain top slide as shown in FIG. 2. Aliquots of the pellets of the urine samples tested were placed on each of the segments. The test was started by placing the activated indicator-strip-slide, on the modular antibiotic slide. The scan results obtained after 5-10 min at 38° C. are illustrated schematically in FIG. 2 where all segments, except for the negative (no antibiotic) control, show decolorization indicating resistance to each antibiotic in that array.
(§9) Samples resistant to ceftazidime but affected by clavulanic acid were assumed to contain extended spectrum beta lactamases (ESBLs). The ‘Confirmed’ detections column summarizes the number of CLP-validated results out of the total findings recorded.

[16] = system: E. coli; assay: as above; format: cell-based; conditions: E. coli, profile r12
Description: as §6, §7, §8, §9

[17] = system: Citrobacter freundii; assay: as above; format: cell-based; conditions: profile r23
Description: as §6, §7, §8, §9

[18] = 28 samples (r6), 5-15 minutes at 33° C.-38° C.

Which “resistance profile predicted by ART” value ([1]; 3 samples (r8), MDR) does the source give for `CO/N=C(\C(=O)N[C@@H]1C(=O)N2C(C(=O)O)=C(CSc3nc(=O)c(=O)[nH]n3C)CS[C@H]12)c1csc(N)n1` [Cro, Ceftriaxone] here?
Its value is “R”.

And the “resistance profile predicted by ART” value ([1]; 12 samples (r7))?
Its value is “S”.

What about the “resistance profile predicted by ART” value [1, 18] of the same compound?
The value was “S”.

What about the “CLP result differing from ART (in brackets)” value [2] of the same compound?
The value was “R”.

And the “CLP result differing from ART (in brackets)” value [3]?
The value was “R”.

And the “resistance profile predicted by ART” value ([4]; 1 sample (r12))?
Its value is “S”.

And the “resistance profile predicted by ART” value ([4]; 8 samples (r11))?
The value was “S”.

What about the “resistance profile predicted by ART” value ([4]; 11 samples (r10), MDR) of the same compound?
The value was “R”.

And the “resistance profile predicted by ART” value ([5]; 1 sample (r31))?
Its value is “S”.

And the “resistance profile predicted by ART” value ([5]; 1 sample (r32))?
Its value is “S”.

What about the “resistance profile predicted by ART” value ([6]; 1 sample (r22)) of the same compound?
Its value is “S”.

What about the “resistance profile predicted by ART” value ([6]; 1 sample (r23)) of the same compound?
Its value is “R”.

What about the “resistance profile predicted by ART” value ([7]; 1 sample (r18)) of the same compound?
Its value is “S”.

And the “resistance profile predicted by ART” value ([7]; 1 sample (r19))?
Its value is “R”.

What about the “resistance profile predicted by ART” value ([7]; 1 sample (r20)) of the same compound?
Its value is “S”.

What about the “resistance profile predicted by ART” value ([7]; 6 samples (r17)) of the same compound?
The value was “S”.

And the “resistance profile predicted by ART” value [8]?
The value was “S”.

And the “resistance profile predicted by ART” value [9]?
The value was “S”.

What about the “resistance profile predicted by ART” value [10] of the same compound?
The value was “S[nd]”.

What about the “resistance profile predicted by ART” value ([11]; 1 sample (r15)) of the same compound?
Its value is “S”.

And the “resistance profile predicted by ART” value ([11]; 3 samples (r14))?
The value was “S”.

What about the “resistance profile predicted by ART” value [12] of the same compound?
The value was “S[nd]”.

What does the source list for `CO/N=C(\C(=O)N[C@@H]1C(=O)N2C(C(=O)O)=C(COC(N)=O)CS[C@H]12)c1ccco1` [Cxm, Cefuroxime]?
resistance profile predicted by ART ([1]; 3 samples (r8), MDR): R; resistance profile predicted by ART ([1]; 12 samples (r7)): S; resistance profile predicted by ART [1, 18]: S; resistance profile predicted by ART ([4]; 1 sample (r12)): R; resistance profile predicted by ART ([4]; 8 samples (r11)): S; resistance profile predicted by ART ([4]; 11 samples (r10), MDR): R; resistance profile predicted by ART ([5]; 1 sample (r31)): S; resistance profile predicted by ART ([5]; 1 sample (r32)): S; resistance profile predicted by ART ([6]; 1 sample (r22)): S; resistance profile predicted by ART ([6]; 1 sample (r23)): R; resistance profile predicted by ART ([7]; 1 sample (r18)): R; resistance profile predicted by ART ([7]; 1 sample (r19)): R; resistance profile predicted by ART ([7]; 1 sample (r20)): R; resistance profile predicted by ART ([7]; 6 samples (r17)): S; resistance profile predicted by ART [8]: S; resistance profile predicted by ART [9]: S; resistance profile predicted by ART [10]: S[nd]; resistance profile predicted by ART ([11]; 1 sample (r15)): R; resistance profile predicted by ART ([11]; 3 samples (r14)): S; resistance profile predicted by ART [12]: S[nd]

Which “hydrolysis by carbapenemase in the sample (decolorization of strip)” value [13] does the source give for `C[C@@H](O)[C@H]1C(=O)N2C(C(=O)O)=C(S[C@@H]3CN[C@H](C(=O)Nc4cccc(C(=O)O)c4)C3)[C@H](C)[C@H]12` [Ert, ertapenem] here?
Its value is “hydrolyzing”.

What does the source list for `O=C(O)[C@H]1/C(=C/CO)O[C@@H]2CC(=O)N21` [RR, clavulanic acid]?
protection from hydrolysis [14]: no protection from hydrolysis; Effect of clavulanic acid (Reduced Resistance) [15]: N; Effect of clavulanic acid (Reduced Resistance) [16]: N; Effect of clavulanic acid (Reduced Resistance) [17]: N
